| melting point [°C] | SMILES |
| --- | --- |
| 80 to 82 | O=[N+]([O-])c1cc2c(c(Cl)c1OCc1ccccc1)CCCC2 |
| 133 to 134 | CCCCc1c[nH]c(S(C)=O)c1[N+](=O)[O-] (centres undefined) |
| 47 to 50 | O=C(CC=C(Cl)Cl)Oc1ccc(F)cc1 |
| 123 to 126 | CCOc1cc(OCC)c2c(C)c(CCCl)c(=O)oc2c1 |
| 102 to 103 | CCOC(=O)CN(C(=O)C(F)(F)F)C(Sc1ccccc1)P(=O)(O)ONC(C)C (centres undefined) |
| 103 to 104 | O=C(O)[C@H](Cc1cccc(OC(F)(F)C(F)F)c1)[C@@H](O)c1cccc(F)n1 (racemic) |
| 86 to 90 | CCCCCCCCCCCCCCCCCCOc1cc(OCCCOc2ccccc2)cc(C(=O)N(CC(=O)O)CC(=O)O)c1 |
| 207 to 208 | CC(C)CC1(C(CCN2C(=O)c3cc(Cl)c(Cl)cc3C2=O)C(=O)NO)CCN(CCc2ccccc2)C1=O (centres undefined) |
| 63 to 64 | CCc1nc(C(=O)c2ccc(Cl)cc2Cl)c(C(C)=O)n1C(CC)CC |
| 130 | O=C(O)C1Cc2ccccc2C1 |
| 184 to 186 | Cc1c(Br)sc2cc(C(=O)Cn3ccnc3)ccc12 |
| 164 | CCCCOc1cc(/C=C(\OCC)C(=O)O)ccc1OCCc1ccc(NC(=O)CC)cc1 |
| 134 to 135 | O=C(CC(O)(c1cc(Cl)cc(Cl)c1)C(F)(F)F)c1ccc(F)c(Br)c1 (centres undefined) |
| 126 to 127 | CCOc1nn(-c2ccc(C(F)(F)F)cc2)cc1CCCOc1cc(CCC(=O)O)n(-c2ccccc2)n1 |
| 148 to 150 | CCOC(=O)c1cnc2c(c(C)nn2-c2ccccc2)c1N(Cc1cccnc1)S(=O)(=O)c1ccc(OC)cc1 |
| 144 | CCN(CC)CCNC(=O)c1ccc(N(S(C)(=O)=O)S(C)(=O)=O)cc1OC |
| 116 to 118 | Cc1cccc(-c2nc(-c3ccc(S(C)(=O)=O)cc3)sc2-c2ccnc(Sc3ccccc3)c2)c1 |
| 85 to 90 | CC#CCOc1ccc(S(=O)(=O)N(C)c2c(C(=O)OCC)cnc3onc(C)c23)cc1 |
| > 300 | Cc1[nH]n(Cc2cccc(C(=O)O)c2)c2nc(-c3ccncc3)nc(=O)c1-2 |
| 220 to 222 | NS(=O)(=O)c1ccc(-c2cnn(Cc3cccc(F)c3)c(=O)c2-c2ccc(F)cc2)cc1 |
| 100 to 102 | CC(C)(C)c1ccc2c(c1)C(COCc1ccccc1)([Si](C)(C)C)c1cc(C(C)(C)C)ccc1-2 |
| 79 to 82 | CC(C)(C)c1cc(SCO)cc(C(C)(C)C)c1O |
| 216 to 218 | CCOCc1nc2c(N)nc3cc(-c4cccc(C(=O)N5CCCC5)c4)ccc3c2n1CC(C)(C)O |
| 56 to 57 | CCOC(=O)CCCCCCCn1cnc(-c2ccccc2)c1 |

| melting point [°C] | SMILES |
| --- | --- |
| 200 to 201 | COc1cc(C(C)NC(=O)OCC2c3ccccc3-c3ccccc32)c([N+](=O)[O-])cc1OCCCC(=O)O (centres undefined) |
| 190 to 192 | CN1c2ccccc2C(=C2CCN(C(=O)OCC(Cl)(Cl)Cl)CC2)c2ccccc21 |
| 160 to 163 | CC1C=C(c2cccc(C(F)(F)F)c2)n2ncc(C#N)c2N1C(=O)CCl (centres undefined) |
| 215 to 216 | CCCc1nc2c(N)nc3cc(C(F)(F)F)ccc3c2s1 |
| 192 | Cn1c(C(F)(F)F)cc(=O)n(-c2cc(O)c(Br)cc2F)c1=O |
| 179 to 180 | NS(=O)(=O)c1ncc2ccccn12 |
| 117 to 119 | OC(CNCCNc1cccc2cn[nH]c12)COc1ccccc1 (centres undefined) |
| > 300 | O=C(O)c1ccc(-c2cnc3c(c2)N(Cc2ccccc2)CCN3)cc1 |
| 95 to 100 | O=C(CCl)Nc1ccc2cc3ccc(NC(=O)CCl)cc3nc2c1 |
| 108 to 111 | COCCOc1nc(SC)c(C#N)c(N2CCc3ccccc3CC2)n1 |
| > 340 | CN1C(C)(C)CC(Nc2c([O-])[c+](NC3CC(C)(C)N(C)C(C)(C)C3)[c+]2[O-])CC1(C)C |
| 187 | Nc1ccc(N2CCN(c3ccccc3OCC3COC(Cn4cncn4)(c4ccc(Cl)cc4Cl)O3)CC2)cc1 (centres undefined) |
| 57 | COC1(OC)CCC2=C(CC(C)C3C2CCC2(C)CCCC32)C1 (centres undefined) |
| 146 to 147 | Cc1ccc(C[C@@H]2CN(CCCN3C(=O)c4ccccc4C3=O)CCN2C(=O)c2cc(C(F)(F)F)cc(C(F)(F)F)c2)cc1C |
| 171 to 172 | COc1ccc(-c2cc(NC(=O)C3(C)Cc4ccccc4C3)n[nH]2)cc1 |
| 113 to 114 | CCCCC(=O)Nc1c(OC)cccc1[N+](=O)[O-] |
| 243 | COc1ccc2ncnc(N3CCc4ccc(Cl)cc43)c2c1 |
| 192 to 194 | Cc1nc(-c2cc(N)c(=O)[nH]c2C)cs1 |
| 177 to 178 | COc1cc(Cc2cnc(NCCSCc3nc[nH]c3C)[nH]c2=O)ccn1 |
| 121 to 123 | CCCCCC1(C=Cc2ccc(C(=O)O)cc2)CC2=C(C1)C(C)(C)CCC2(C)C |
| 139 to 141 | NCC(c1cccc(OCc2ccccc2)c1)C1CCCCC1O (mixture of isomers) |
| 220 | Nc1ccc2[nH]c(-c3ccccc3)cc2c1 |
| 150 to 153 | O=C(c1ccccc1)c1ccc(NC(=O)c2cc(Cl)ccc2Cl)cc1 |
| 147 to 149 | CNC(=O)C1=CC(COC)(COC)Oc2ccc([N+](=O)[O-])cc21 |

| melting point [°C] | SMILES |
| --- | --- |
| 216 to 218 | COc1ccc(NC(=O)NCc2ccc3c(c2)CN(C2CCC(=O)NC2=O)C3=O)cc1OC (centres undefined) |
| 139 to 140 | CC(=O)c1ccc2c(c1)C(=O)C1(CCOC1=O)S2 (centres undefined) |
| 155 | CC(NC(=O)CNC(=O)c1c(Cl)cccc1Cl)c1ccccc1 (centres undefined) |
| 165 | Clc1ccc2c3c([nH]c2c1)C1=CCCCN1CC3 |
| 195 to 196 | CC(=O)N[C@H]1CC[C@H](c2ccc(N)cc2)CC1 |
| 227 to 228 | COc1ccc(C(NC(=O)CC2CCCC2)C2=CCc3ccccc32)c(C(=O)NS(=O)(=O)c2ccccc2C)c1 (centres undefined) |
| 125 | CCCCCC(CC(=O)Nc1cc(CCCNC(N)=O)ccc1C(C)(C)C)c1ccc(OC)cc1OC (centres undefined) |
| 202 to 203 | NC1CC2=CNC=C3C=COCC1=C32 (centres undefined) |
| 261 to 262 | Cc1cc(N2CCN(c3ccncc3)CC2)ccc1OCCCC(=O)O |
| 174 to 177 | CC1(C)[C@@]2(C)CC[C@]1(NCC(=O)N1CCC[C@H]1C#N)C(=O)OC2 |
| 174 to 176 | CN(C)C(=O)n1c(CN2CCN(c3ccccn3)CC2)nc2ccccc21 |
| 84 to 87 | CCNC(=O)NCc1ccc(/C=C/C(c2cc(Cl)c(Cl)c(Cl)c2)C(F)(F)F)c2ccccc12 (centres undefined) |
| 111 | Cc1ccc(-c2nc(CCCCCCSC(C)(C)C(=O)O)c(C)o2)cc1 |
| 189 | COc1cccc(NC(=O)c2cc(C#N)cc(C)n2)c1 |
| 92 to 93 | COC(=O)c1c(CC#N)ncn1C1OC(COC(C)=O)C(OC(C)=O)C1OC(C)=O (centres undefined) |
| 137 to 139 | Nc1cccc(Oc2ccc(C(=O)c3ccc(C#Cc4ccccc4)cc3)cc2)c1 |
| 92 to 94 | COc1cc(-n2ccc(C)n2)ccc1C(=O)N1Cc2cccn2Cc2ccccc21 |
| 90 to 93 | COCCOC(=O)c1c(S(C)(=O)=O)ccc(C(=O)O)c1C |
| 197 to 199 | C[C@H](CO)Nc1nc(SCc2cccc(F)c2F)nc2[nH]c(=O)c(NCCO)nc12 |
| 105 to 107 | O=c1oc2cc(Cl)cnc2n1CCl |
| 113 to 115 | CNC(=O)CCSSCCC(=O)NC |
| 138 to 141 | C=C=CN(C(=O)c1ccco1)c1c(C)cccc1C |
| 225 | O=C1CC(c2cccc(-n3ccnc3)c2)=Nc2cc(OCCO)c(-c3ccc(F)cc3)cc2N1 |
| 84 to 86 | N#CCCOc1cccc(O)c1C=O |

| melting point [°C] | SMILES |
| --- | --- |
| 135 | Cc1nc(Cn2cnc3c2c(=O)n(C)c(=O)n3C)no1 |
| 119 to 120 | Cc1nc[nH]c1CSCCNC(=C[N+](=O)[O-])NCCSCc1nccs1 |
| 113 to 115 | COc1ccc(NC(=O)c2ccccc2Cl)cc1 |
| 145 to 148 | CC(C)(COc1ccc(O)c(C(N)=O)c1)[N+](=O)[O-] |
| 202 to 203 | O=C(Nc1cccc(C(F)(F)F)c1)c1cc(-c2ccc(F)cc2F)ccc1O |
| 109 to 110 | COC(=O)c1sc2ccccc2c1O |
| 248 to 252 | CCc1cc(Nc2nc(Nc3cc(CC)n[nH]3)c3ccccc3n2)[nH]n1 |
| 135 to 137 | C[C@H](C(O)C(c1ccc(F)cc1F)n1cncn1)S(=O)(=O)[C@@H]1CNCCN1c1ccccc1 (some centres undefined) |
| 223 | CCCc1ncc(/C=C(\Cc2cccs2)C(=O)O)n1Cc1ccccc1[N+](=O)[O-] |
| 117 to 119 | COc1ccc(-n2nc(Cl)cc2-c2ccc(OCCNS(C)(=O)=O)cc2)cc1 |
| 203 | Cc1ccc(C(=O)Nc2ccc(C#N)cc2)cc1Nc1ncc(-c2cccnc2)o1 |
| 206 to 209 | Cc1nc2c(N)nc3ccccc3c2n1CCCCS(C)(=O)=O |
| 213 to 214 | COC(=O)Nc1cc(N2CC=CCC2)nc2nc(=O)on12 |
| 268 to 270 | CC1CC(=O)NN=C1c1ccc(Nc2nc(=O)cc[nH]2)cc1 (centres undefined) |
| 283 to 286 | O=C(O)COc1ccc2c(=O)c3cccc(Cl)c3oc2c1Cl |
| > 250 | CC(C)c1sc2ncnc(N)c2c1-c1ccc(NC(=O)c2ccccc2)cc1 |
| 106 to 107 | CCCCOC(=O)[C@H](Cc1ccc(O)cc1)NC(=O)C1(NC(=O)C2(S)CCCC2)CCCC1 |
| > 250 | O=C(c1ccoc1)c1ccc2[nH]c(=O)cc(-c3cccc(Cl)c3)c2c1 |
| 242 | CCCCOc1ccc(S(=O)(=O)C2(C(=O)O)CCN(Cc3ccc(C#N)cc3)CC2)cc1 |
| 140 to 142 | COc1ccc(Cn2cnc3c(-c4ccco4)nc(-c4ccccc4)nc32)cc1 |
| 64 to 66 | CN(C)CCCSc1cccc2c1NC(=O)CC2c1ccccc1 (centres undefined) |

| SMILES | melting point [°C] |
| --- | --- |
| CN1Cc2c(C=O)ncn2-c2cccc(Cl)c2C1=O | 204 to 205 |
| COc1cc(C)cc(OC)c1C1=NC(NC(=O)Nc2ccccc2Cl)C(=O)N(C)c2ccccc21 (centres undefined) | 260 |
| c1nc(Cc2ccc3c(c2)COCO3)c[nH]1 | 145 |
| CN1Cc2c(C#CC3CC3)ncn2-c2cccc(Cl)c2C1=O | 177 to 178 |
| Fc1ccc2cc(C3CCNCC3)sc2c1 | 115 to 120 |
| NCCc1ccc(OCC2CCCO2)c(S(N)(=O)=O)c1 (centres undefined) | 135 to 140 |
